From patent publication US20100047321A1, “SILVER ANTIMICROBIAL COMPOSITION AND USE” (priority 2008, published 2010)

How the values were obtained:
[1] = Settling test of redispersed aqueous silver chloride/gelatin dispersion (silver assay of top samples); assay type: physicochemical; details: redispersal and testing after storage at 40° C. for 5 days
Procedure: Samples were analyzed for silver content using an Automated Thioacetamide Titration system (ATT) to assay silver ion (Ag^+) present in silver containing compounds by a potentiometric titration. Silver chloride grains, which have been solubilized in a solution of thiosulfate, sodium hydroxide and gelatin, are titrated with thioacetamide to precipitate silver sulfide. The end-point of the titration is monitored potentiometrically using a silver sulfide-coated silver billet indicator electrode.
[…] To test for settling, the stirring was stopped and a 10 ml portion was removed from the top of the aliquot (time=0 sample).
Additional samples were taken in a similar manner from the unstirred aliquot at 10 minute, 30 minute, and 60 minute intervals. By comparing the theoretical silver chloride concentration (measured on a sample taken from the vigorously stirred dispersion at the conclusion of the precipitation), assuming a perfectly dispersed solution, with that determined by the ATT assay for each sample taken from the top of the aliquot, it is possible to determine the amount of AgCl product that had settled in a given time interval.
The following TABLE I contains the settling data for Invention Examples 1-7 and Comparative Examples 1-10. The settling is evaluated by comparing the silver assay results for samples taken from the top of the aliquot at time=0 or later, to the theoretical silver concentration, such that percent settle is defined by the expression (Theoretical [Ag]−Silver Assay(time))/(Theoretical [Ag]))×100.

Source text for pKa of additive: The storage stability additives used in the compositions of this invention are N-heterocyclic acids each having a pKa of from about 4 to about 9 or from about 4.5 to about 8.5, or from about 4.8 to about 8.0.

O=c1[nH]c(=O)c2[nH]c(=O)[nH]c2[nH]1 [Uric acid, uric acid]
Effectiveness of additive in reducing settling [1]: remarkably effective
pKa (pKa of additive): 5.8

Cc1cc(O)n2ncnc2n1.[Na] [TAI, (1,2,4)triazolo(1,5-a)pyrimidin-7-ol, 5-methyl-, sodium salt]
Effectiveness of additive in reducing settling [1]: remarkably effective
pKa (pKa of additive): 6.2

Cc1nc2ncnn2c(O)c1Br [Br-TAI, (1,2,4)triazolo(1,5-a)pyrimidin-7-ol, 6-bromo-5-methyl-]
Effectiveness of additive in reducing settling [1]: remarkably effective
pKa (pKa of additive): 4.8

methyl-1H-benzotriazole [Me-BZT]
Effectiveness of additive in reducing settling [1]: remarkably effective

O=C1NS(=O)(=O)c2ccccc21 [Saccharin, saccharin, reference compound]
Effectiveness of additive in reducing settling [1]: ineffective
Additive pKa (pKa of additive): 1.8
pKa (pKa of additive): 1.8

O=[N+]([O-])c1cc(Cl)cc2[nH]nnc12 [CN-BZT, 6-chloro-4-nitro-1H-benzotriazole]
Effectiveness of additive in reducing settling [1]: remarkably effective
pKa (pKa of additive): 6

O=c1[nH][nH]c(=O)[nH]1 [Urazole, urazole]
Effectiveness of additive in reducing settling [1]: remarkably effective
pKa (pKa of additive): 5.8

CC(=O)Nc1cccc(-n2[nH]nnc2=S)c1 [APMT, acetamide, N-(3-(2,5-dihydro-5-thioxo-1H-tetrazol-1-yl)phenyl)-, reference compound]
Effectiveness of additive in reducing settling [1]: ineffective
pKa (pKa of additive): 3.3

O=C1CCC(=O)N1 [Succinimide, succinimide, reference compound]
Effectiveness of additive in reducing settling [1]: ineffective
pKa (pKa of additive): 9.4

O=c1cc[nH]c(=O)[nH]1 [Uracil, uracil, reference compound]
Effectiveness of additive in reducing settling [1]: ineffective
pKa (pKa of additive): 9.2

CSc1nc2nc(C)cc(O)n2n1 [SMe-TAI, (1,2,4)triazolo(1,5-a)pyrimidin-7-ol, 5-methyl-2-(methylthio)-]
Effectiveness of additive in reducing settling [1]: remarkably effective
pKa (pKa of additive): 6.2
